Entries after “also recorded” stand apart in the source; their conditions may differ.
Tests used:
[1] = logD7.4 by micro shake flask method (n-octanol / MOPS buffer pH 7.4, LC-MS); type: physicochemical; settings: read-out: logD7.4 ± SD (Micro Shake Flask)
Procedure: The logD7.4 values were recorded using the micro shake flask method. In this method, the test compound is distributed between n-octanol and MOPS buffer pH 7.4, and the amount of the compound in the buffer layer is determined by mass spectrometry.
The new fluorescent dyes were designed to increase the polarity and reduce the non-specific labeling of lipophilic membranes of cells. Moreover, a higher polarity should lead to increased water solubility and thus improved handling of the dyes. The logD7.4 value was recorded as a measure of the polarity/lipophilicity using our recently published micro-shake flask method. According to this method, the amount of compound in the aqueous 3-morpholinopropanesulfonic acid (MOPS) buffer pH 7.4 was determined by LC-MS [31, 32].

[2] = logP by HPLC retention time correlation; type: physicochemical; settings: standardized reversed phase HPLC system
Procedure: The logP values were recorded using HPLC analysis. Thus, the retention time of the test compound in a standardized reversed phase HPLC system is correlated with the retention times of compounds with known logP values.
In addition to the logD7.4 values, the logP values of the fluorescent probes were recorded by HPLC, i.e., after calibration of the method, the retention times were correlated with the logP values or the compounds [33]. […] Fluorescein-labeled ligands 21a and 21b are considerably more polar than the corresponding bodipy-labeled senicapoc derivatives.

[3] = target: T1, KCa3.1 channel in A549-3R cells (Homo sapiens, UniProt O15554); experiment: Blocking of staining by preincubation with senicapoc, fixed and living A549-3R cells (Protocols 3 and 4); type: cell-based; settings: 30 µM senicapoc, 5 min, 4 °C
T1 construct: the non-small cell lung cancer cell line A549-3R with a high expression of the KCa3.1 channel was employed; endogenous in cells; host or cells: A549-3R cells
Procedure: After fixation of the cells (Section 2.10.2), 300 µL of a 30 µM solution of senicapoc blocking solution was added to the glass bottom dish. The glass bottom dish was incubated for 5 min at 4 °C. After incubation, the solution was removed and a mixture of 150 µL of 60 µM senicapoc solution and 150 µL of 20 µM staining solution were added to the glass bottom dish. The cells were incubated for 10 min at 4 °C in a dark chamber. Subsequently, the cells were washed five times with PBS and then used for fluorescence microscopy.
The cells were used without fixation. After incubating the cells for 24 h (Section 2.10.1), the medium was removed, and the cells were washed three times with 1 mL of PBS. Subsequently, the cells were stained as described in Protocol 3.
In order to show the specificity of labeling KCa3.1 channels by the fluorescent probe 10b, fixed and living cells were preincubated with 30 µM senicapoc (3) for 5 min at 4 °C. […] The complete blockade of the punctate staining pattern confirms that the KCa3.1 channel was labeled with probe 10b.

[4] = target: T1, KCa3.1 channel in A549-3R cells; experiment: Staining of permeabilized A549-3R cells (Protocol 5); type: cell-based
Procedure: After fixation of the cells (Section 2.10.2), 1 mL of permeabilization solution was added to the glass bottom dish. The cells were incubated for 30 min at 4 °C and afterwards washed three times with PBS. Subsequently, Protocol 1 was performed.
The specificity of the bodipy-labeled senicapoc derivative 10b was further analyzed via conducting co-staining experiments with antibodies. For staining with antibodies, A549-3R cells had to be permeabilized with saponin, since the antibody binds at the intracellular part of the ion channel only after entering the cell. […] For antibody-based immunofluorescence staining of the KCa3.1 channels of permeabilized A549-3R cells, various concentrations of the primary and secondary antibody were tested. Optimal images were obtained with a dilution of 1:300 for the primary antibody and 1:500 for the secondary antibody (see Figure S13, Supplementary Materials). The images obtained by immunofluorescence staining were analyzed as described above for the images with fluorescent probe 10b. This analysis led to a FWHM of 4.80 ± 0.83 pixels and a density of 1.75 ± 0.19 KCa3.1 channels/µm^2. […]

[5] = target: T1, KCa3.1 channel in A549-3R cells; experiment: Whole-cell patch clamp on A549-3R cells after channel opening with 1-EBIO; type: cell-based
Procedure: Bath solution: 140 mM NaCl, 5 mM KCl, 10 mM HEPES, 1 mM MgCl2 and 1 mM CaCl2 in an aqueous solution; pH = 7.4 with NaOH.
Pipette solution: 140 mM KCl, 10 mM HEPES, 1.3 mM EGTA, 1 mM MgCl2 and 1.217 mM CaCl2 in an aqueous solution; pH = 7.4 with NaOH; free Ca^2+ concentration of 1 µM.
1-EBIO solution: 100 mM stock solution of 1-ethylbenzimidazolone (1-EBIO) in DMSO was diluted with the bath solution to 50 µM.
Test solution: A 10 mM stock solution of imaging compound 10b in DMSO was diluted with the bath solution to 1 µM.
Senicapoc solution: 10 mM stock solution of senicapoc (3) in DMSO was diluted with bath solution to 1 µM.
Whole-cell patch clamp experiments were conducted at room temperature using borosilicate glass pipettes (GC150TF-10, Harvard Ltd., Boston, MA, USA) connected to an EPC-10 amplifier (HEKA Electronics, Lambrecht, Germany). […] Current density was calculated by dividing the current amplitude determined at the end of the depolarization voltage ramp to +60 mV by the membrane capacitance obtained from the slow capacitance compensation. The calculated free Ca^2+ concentration of the pipette solution was 1 µmol/L to obtain full activation of the KCa channels during the patch clamp experiments. […] A multi-barreled application pipette with a tip diameter of ~100 µm was used for test solution applications close to the recorded cell. […]

CCC1=C(C)C2=C(c3ccc(OCCOCCn4cc(COc5ccc(C(C(N)=O)(c6ccccc6)c6ccc(F)cc6)cc5)nn4)cc3)c3c(C)c(CC)c(C)n3[B-](F)(OC)[N+]2=C1C (stereo not shown) [10b, 2-{4-[(1-{2-[4-(2,6-Diethyl-4-fluoro-4-methoxy-1,3,5,7-tetramethyl-4-bora-3a,4a-diaza-s-indacen-8-yl)phenoxy]ethoxyethyl}-1,2,3-triazol-4-yl)methoxy]phenyl}-2-(4-flluorophenyl)-2-phenylacetamide]
logD [1]: > 5
chromatographic logP [2]: 5.8
staining pattern after preincubation with senicapoc [3]: did not lead to a punctate staining pattern
density of labeled KCa3.1 channels ([4]; permeabilized A549-3R cells): 1.15 ion channels/µm^2
staining pattern of permeabilized A549-3R cells ([4]; saponin permeabilization, Protocol 5): expected punctate staining pattern
inhibitory activity compared with senicapoc ([5]; 1 µM each, channel opened with 1-EBIO): only slightly lower than the inhibitory activity of senicapoc
inhibition of the KCa3.1 ion channel current ([5]; 1 µM, channel opened with 50 µM 1-EBIO, whole A549-3R cells): inhibited the ion channel considerably; also recorded: inhibited the ion current

From PMC11859423, “Fluorescent Probes to Image the KCa3.1 Channel in Tumor Cells” (Pharmaceutics, 2025)
